Results on six compounds are retold here after patent publication US7842683B2, “Neurotherapeutic compositions and method” (Revaax Pharmaceuticals, LLC, priority 1999, dated 2010).

For one series, the system named is male golden hamsters. The series can be described thus: Resident/intruder paradigm of offensive aggression. The format is in vivo, Syrian golden hamsters (Mesocricetus auratus). As for the experimental part:
Male Syrian golden hamsters (Mesocricetus auratus) (140-150 g) obtained from Harlan Sprague-Dawley Laboratories (Indianapolis, Ind.) were housed individually in Plexiglas cages (24 cm×24 cm×20 cm), maintained on a reverse light:dark cycle (14L:10D; lights on at 19:00 hr) and provided food and water ad libitum. Animals were acclimated to the reverse light:dark cycle for at least two weeks before testing. All behavioral tests were conducted during the dark phase of the circadian cycle. All animals were acquired and cared for in accordance with the guidelines published in the Guide for the Care and Use of Laboratory Animals (National Institutes of Health Publications No. 85-23, Revised 1985).
(§1) Agonistic behavior can be classified as either offensive or defensive aggression (Blanchard and Blanchard, 1977; Adams, […]; Albert and Walsh, 1984). Offensive aggression is characterized by the aggressor initiating an attack on an opponent, while defensive aggression lacks active approach. Both types of aggression have their own unique neurobehavioral systems. The stimuli that elicit offensive and defense attack are different, as are the sequences of behaviors that accompany each agonistic response. […] Offensive aggression is easily studied using male golden hamsters tested in a resident/intruder paradigm, an established model of offensive aggression (Ferris and Potegal 1988). Placing an unfamiliar male hamster into the home cage of another male hamster elicits a well-defined sequence of agonistic behaviors from the resident that includes offensive aggression.
Hamsters are nocturnal and as such all behavioral tests were performed during the first four hrs of the dark phase under dim red illumination. The resident was scored for offensive aggression, e.g., latency to bite the intruder, the total number of bites, total contact time with the intruder and flank marking over a 10 min test period (Ferris and Potegal, 1988). Flank marking is a form of olfactory communication in which a hamsters arches its back and rubs pheromone producing flank glands against objects in the environment (Johnson, 1986).
Parametric data, i.e., latencies and contact time, were analyzed with a one-way ANOVA followed by Newman-Keuls post hoc tests. Non parametric data, i.e., number of bites and flank marks, were analyzed with Kruskal-Wallis tests followed by Mann-Whitney U tests to determine differences between groups. Two sample comparisons were analyzed with paired and unpaired t-Tests for parametric data and Wilcoxon and Mann-Whitney Tests for paired and unpaired non-parametric data, respectively.
as §1, with “by an” for “by the”, “an opponent; while,” for “an opponent, while”, “Potegal 1988) in the context of defending the home burrow.” for “Potegal 1988).”
Hamsters are nocturnal and as such all behavioral tests were performed during the first four hrs of the dark phase under dim red illumination. The resident was scored for offensive aggression, e.g., latency to bite the intruder, the total number of bites, total contact time with the intruder and flank marking over a 10 min test period (Ferris and Potegal, 1988). […]

Another series relates to golden hamsters. Nature of the series: Seed finding model of anxiety. The format is in vivo, Syrian golden hamsters (Mesocricetus auratus). The source says: Clavulanic acid (CLAV) is structurally similar to the beta-lactam antibiotics. A most robust and simple bioassay for screening beta-lactams for CNS activity is the golden hamster seed finding model of anxiety. Briefly, hamsters are deprived of food overnight. The following day they are exposed to the additional stress of being taken from their home cage and placed in a novel environment for a few minutes. This manipulation stimulates the release of the stress hormone cortisol (FIG. 37). During their absence from the home cage, sunflower seeds are hidden under the bedding in one of the corners. When returned to the home cage, hamsters routinely scramble along the walls for 1-2 min before settling down, locating and eating the seeds. However, animals treated with the benzodiazepine anxiolytic chlordiazepoxide find seeds in less than 10 sec.
Male, Syrian golden hamsters (Mesocricetus auratus) (120-130 g) obtained from Harlan Sprague-Dawley Laboratories (Indianapolis, Ind.) were housed individually in Plexiglas cages (24 cm×24 cm×20 cm), maintained on a reverse light:dark cycle (14L:10D; lights on at 19:00 hr) and provided food and water ad libitum. A range of concentrations of CLAV (saline vehicle, 0.1, 1.0, 10, 100 1,000 ng/kg) were tested in six groups of hamsters (4-8/group)(FIG. 25). All tests were conducted during the dark phase of the circadian cycle under dim red illumination. Prior to testing all animals were fasted for 20-24 hrs. Ninety min after intraperitoneal (IP) injection of drug, animals were taken from their home cage and placed into a holding cage for 2 min. During their absence, six sunflower seeds were buried under the bedding in one corner of their home cage. Animals were placed back into their home cage randomly facing any one of the empty corners and timed for their latency to find the seeds in a five min observation period. Latency times were analyzed with a one-way ANOVA followed by Scheffe's post hoc tests. Assumption of equal variances was tested (Hartley's F-max=2.1 p>0.05)
It was hypothesized that CLAV functioned as an anxiolytic in the seed finding assay by blocking NAALADase activity in the brain. If this notion were true then it would be predicted that drugs known to block NAALADase should also enhance seed finding. To this end, animals were treated with N-acetyl-beta-aspartyl-glutamic acid (beta-NAAG), a competitive inhibitor of NAALADase (Serval et al., 1992) and tested in the seed finding model of anxiety. The study was similar to that outlined in Section I with one notable exception. […] Beta-NAAG (FW 304) was given in a dose of 3 ng in a volume of 1 μl saline ICV. The average adult hamster brain weights ca. 1.2 g of which 22% is extracellular fluid. The estimated beta-NAAG concentration was 11 ng/ml or 36 nM.
Two groups of six animals each were fasted overnight as previously described and tested the following day. One group was treated with beta-NAAG and the other saline vehicle and one hr later timed for latency to find the hidden sunflower seeds. A Student t-test for unpaired data was used for statistical comparisons.

A short description of series [1]: Estimated fluid and brain concentrations after dosing hamsters. In kind it is in vivo, hamster. As to the method:
The adult male hamsters used in these studies weighed around 125 g. […] CLAV has a volume of distribution approximating the extracellular fluid volume. The extracellular water content of lean body mass is approximately 22%.
To this end, animals were treated with N-acetyl-beta-aspartyl-glutamic acid (beta-NAAG), a competitive inhibitor of NAALADase (Serval et al., 1992) and tested in the seed finding model of anxiety. The study was similar to that outlined in Section I with one notable exception. […] Beta-NAAG (FW 304) was given in a dose of 3 ng in a volume of 1 μl saline ICV. The average adult hamster brain weights ca. 1.2 g of which 22% is extracellular fluid.

For series [2] the following is noted: in vivo; cited from earlier work.
Another series relates to hamsters. Nature of the series: Olfactory discrimination: latency to find hidden sunflower seeds. The format is in vivo, Syrian golden hamsters (Mesocricetus auratus). To be noted: 1 mg/kg intracerebroventricular, sixty min, five min observation. As for the experimental part:
Sixteen animals were treated with vehicle or 50 μg/kg Mox and tested for olfactory discrimination by measuring their latency to find hidden sunflower seeds (FIG. 5). The injections were counterbalanced with each animal receiving each treatment. Prior to testing animals were fasted for 24 hrs. Ninety minutes after injection animals were briefly taken from their home cage while six sunflower seeds were buried under the bedding in one corner. Animals were placed back into their home cage and scored for the latency to find the seeds in a ten min observation period. […] In fact, not one of the sixteen animals consumed all of the seeds following saline as compared to all animals treated with Mox.
Six animals received an intracerebroventricular injection of vehicle or 1 mg/kg PPP and tested for olfactory discrimination by measuring their latency to find hidden sunflower seeds (FIG. 16). The injections were counterbalanced with each animal receiving each treatment. Prior to testing animals were fasted for 24 hrs. Sixty min. After injection animals were briefly taken from their home cage while six sunflower seeds were buried under the bedding in one corner. Animals were placed back into their home cage and scored for the latency to find the seeds in a five min. Observation period.

Where [3] appears, read: high dose ca. 5 mg/kg, 9 mM, IP.
[4] abbreviates: high dose ca. 5 mg/kg, 9 mM, IP, 90 min.

`CC1(C)S[C@@H]2[C@H](NC(=O)C(C(=O)O)c3ccccc3)C(=O)N2[C@H]1C(=O)O` (stereo partly drawn) [Carb, Carbenicillin]: in the series on male golden hamsters (equimolar (90 μM) IP, 90 min), the contact time result is “no significant treatment effect” and the flank marking result was “no significant treatment effect”. Moreover, in the series on male golden hamsters (setting [3]), the contact time result is on record as “no significant treatment effect” and the flank marking entry is recorded as “no significant treatment effect”. Moreover, in the series on male golden hamsters (setting [4]), the latency to bite entry is recorded as “significantly delayed” and the number of bites entry is “significantly reduced”.

In the case of `CC(=O)N[C@@H](CC(=O)N[C@@H](CCC(=O)O)C(=O)O)C(=O)O` [beta-NAAG, N-acetyl-beta-aspartyl-glutamic acid], the “measures of offensive aggression (latency to bite, bites, contact time, flank marking)” value in the series with male golden hamsters (3 ng ICV, after the seed finding assay) was “no significant differences”. Also, the “latency to find the seeds vs saline vehicle” value in the series on golden hamsters (3 ng ICV, one hr, five min observation) is listed as “significantly (p<0.001) different”. Besides, the “mean latency to find the seeds” value in the series on golden hamsters (3 ng/μl microinjected, former vehicle animals three days later) amounted to 21.8 ± 9.7 s. In addition, the “estimated concentration in brain extracellular fluid (molar)” value in series [1] (beta-NAAG 3 ng ICV, FW 304) is on record as 36 nM. The “estimated concentration in brain extracellular fluid” value in series [1] (beta-NAAG 3 ng in 1 μl ICV, brain ca. 1.2 g, 22% extracellular fluid) is 11 ng/mL. Besides, the “blood-brain barrier transport / CNS penetrability” value in series [2] is recorded as “does not readily cross the blood-brain barrier”.

With `CC1(C)S[C@@H]2[C@H](NC(=O)[C@H](N)c3ccccc3)C(=O)N2[C@H]1C(=O)O` [Amp, Ampicillin], the contact time entry is “no significant treatment effect” in the series on male golden hamsters (equimolar (90 μM) IP, 90 min) and “no significant treatment effect” with male golden hamsters (setting [3]). The flank marking result in the series on male golden hamsters (equimolar (90 μM) IP, 90 min) is on record as “no significant treatment effect”; with male golden hamsters (setting [3]), “no significant treatment effect”. Besides, the number of bites result with male golden hamsters (equimolar (90 μM) IP, 90 min) is recorded as “significantly reduced”; with male golden hamsters (setting [4]) it was “significantly reduced”. The latency to bite entry in the series with male golden hamsters (equimolar (90 μM, equal to 50 μg/kg Mox) IP, 90 min) is “significantly delayed”; with male golden hamsters (setting [4]), “significantly delayed”.

On to Ala-D-γ-Glu-Lys-D-Ala-D-Ala [PPP], for which, in the series on male golden hamsters (ca. 1 mg/kg ICV), the contact time entry was “no significant difference” and the flank marking result is “no significant difference”. In addition, the number of bites result in the series on male golden hamsters (ca. 1 mg/kg ICV, sixty minutes) is on record as “reduced”. The latency to bite entry with male golden hamsters (ca. 1 mg/kg in 1 μl into lateral ventricle, sixty minutes) was “significantly increased”. In the series on hamsters, the “latency to find the seed” value is “significantly (p<0.05) reduced”.

For the compound `CO[C@@]1(NC(=O)Cc2cccs2)C(=O)N2C(C(=O)O)=C(COC(N)=O)CS[C@@H]21` [Cef, Cefoxitin], in the series on male golden hamsters (equimolar (90 μM) IP, 90 min), the contact time result is “no significant treatment effect” and the flank marking result is recorded as “no significant treatment effect”. Further, in the series with male golden hamsters (setting [3]), the contact time result is “no significant treatment effect” and the flank marking entry is given as “no significant treatment effect”. Besides, the “blood-brain barrier transport / CNS penetrability” value in series [2] is “poor CNS penetrability”.

Turning to `CC1(C)S[C@@H]2[C@H](NC(=O)[C@H](N)c3ccc(O)cc3)C(=O)N2[C@H]1C(=O)O` [Amox, Amoxicillin], the aggressive behavior result with male golden hamsters (1 mg/kg (ca. 2 mM) IP, 90 min) is on record as “not significantly altered”. Further, in the series with male golden hamsters (equimolar (90 μM) IP, 90 min), the contact time entry is “no significant treatment effect” and the flank marking entry was “no significant treatment effect”.
